# Test results as given in article PMC12430278, “A Simple and Reliable Method for the Determination of Isorhapontigenin in Murine Biological Matrices: Application in a Tissue Distribution Study” (Molecules, 2025).
# Experiments:
# [1] = Stability of stock solutions; format: physicochemical; settings: DMSO stock solution, stock solution 0.40 mg/mL, n = 6, read-out: Remaining (%, Mean ± SD)
# Protocol: Stock solutions of ISO and trans-stilbene (internal standard, IS) were prepared in DMSO at a final concentration of 1 mg/mL. These solutions were stored at −20 °C and protected from light. The calibration standard and quality control (QC) samples were prepared by serial dilution of the ISO stock solution with pooled blank murine plasma or respective tissue homogenate.
# The stability of ISO was evaluated under various storage conditions. Stock solution stability was assessed after storage at room temperature (25 °C) and –20 °C. The stability of ISO in plasma was examined under the following conditions: short-term storage (25 °C for 24 h), long-term storage (–80 °C for 52 days), three freeze–thaw cycles, and post-preparative stability (samples kept in an autosampler at 4 °C for more than 24 h). As it is difficult to evaluate ISO stability directly in tissues, only the short-term stability in tissue homogenates was assessed (6 h on ice). Similarly, post-preparative stability in processed tissue samples was assessed using liver homogenate as a representative, due to the complexity of the hepatic matrix. Stability was considered acceptable if 85–115% of the initial ISO concentration remained.
# [2] = cited from earlier work; for Oral absorption: in vivo
# [3] = enzymatic-hydrolysis approach; cited from earlier work
compound,measurement,setting,value
"C(=C\c1ccccc1)/c1ccccc1 [Internal standard, trans-stilbene, reference compound]","remaining at 24 h, 0.4 mg/mL",[1]; stored at room temperature for 24 h,94.7 ± 0.3%
same,"remaining at 480 h, 0.4 mg/mL",[1]; stored at −20 °C for 20 days,105.3 ± 0.7%
Oc1cc(O)cc(/C=C/c2ccc(O)cc2O)c1 [oxyresveratrol],Oral absorption,[2],rapid oral absorption
"Oc1cc(O)cc(/C=C/c2ccc(O)c(O)c2)c1 [piceatannol, reference compound]",Oral absorption,[2],rapid oral absorption
same,Sulfation,[3],extensive sulfation
COc1cc(/C=C/c2ccc(O)cc2)cc(OC)c1 [pterostilbene],Brain bioavailability,[2]; compared with ISO's limited brain penetration after oral administration,significantly improved brain bioavailability
